“Also recorded” adds a separate entry of the source.
System: mouse primary myoblasts
Experiment: Scratch migration assay, mouse primary myoblasts
Assay type: cell-based
Conditions: primary myoblasts; MDC at 50 μm
Description: Cellular polarization is indicative of increased motility (de Forges et al., 2012). Scratch assays were used to test whether Wnt7a and Fzd7 polarization affect cell motility. To exclude effects on the localization of cells arising from altered rates of proliferation, cells were treated with Mitomycin-C.
Fzd7 deficient cells migrated 59% less compared to heterozygous myoblasts and expression of Fzd7-Flag in Fzd7 knockout myoblasts restored migration to normal levels (FIG. 2D). […] To investigate whether the stimulation of myoblast migration is dose dependent, different concentrations of Wnt7a and Wnt3a were tested for their effect on migration.
Following plasmid transfection or application of Wnts (R&D Systems), the cells were treated with Mitomycin-C for 2 h (50 μg/mL). Subsequently, the monolayer of cells was scraped in a straight line. The plates were then extensively washed with culture medium and incubated for 24 h before analysis. Analysis was performed using DAPI staining after matching the reference points and enumeration of DAPI-stained nuclei in the scar was performed. Unless otherwise indicated, Wnt7a and Wnt3a were used at a concentration of 100 ng/mL in scratch assays. Monodansylcadaverine (MDC, 30432, Sigma) was used in scratch assays at a concentration of 50 μm.

In the case of `CN(C)c1cccc2c(S(=O)(=O)NCCCCCN)cccc12` [monodansylcadaverine, reference compound], the “effect on Wnt7a mediated migration in scratch assays” value is reported as “prevents Wnt7a induced migration; also recorded: prevented Wnt7a mediated migration”.

— patent US20170087188A1, “WNT INDUCED MOTILITY AND ENHANCED ENGRAFTMENT OF CELLS” (OTTAWA HOSPITAL RESEARCH INSTITUTE, priority 2014, published 2017)
